Experimental findings from ChEMBL document CHEMBL1146695 (Bioorg Med Chem Lett, 2004) are described below.

Assay [1] has as its target T1, Carbonic anhydrase 4 (Bos taurus, UniProt Q95323).
T1 sequence (Q95323 whole entry): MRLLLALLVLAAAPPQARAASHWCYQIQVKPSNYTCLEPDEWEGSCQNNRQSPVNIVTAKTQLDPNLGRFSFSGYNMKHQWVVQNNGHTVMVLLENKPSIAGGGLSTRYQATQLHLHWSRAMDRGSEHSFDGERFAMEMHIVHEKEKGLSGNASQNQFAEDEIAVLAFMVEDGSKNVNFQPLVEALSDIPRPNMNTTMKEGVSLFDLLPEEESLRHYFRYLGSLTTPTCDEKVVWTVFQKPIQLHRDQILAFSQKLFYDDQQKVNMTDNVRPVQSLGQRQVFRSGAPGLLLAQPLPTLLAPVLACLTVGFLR
Description: Compound was evaluated for inhibition against bovine carbonic anhydrase IV

Assay [2] addresses Carbonic anhydrase 2 (Homo sapiens, UniProt P00918).
Description: Compound was evaluated for inhibition against human carbonic anhydrase II
The target of assay [3] is Carbonic anhydrase 1 (Homo sapiens, UniProt P00915).
Chain of Carbonic anhydrase 1 (P00915 whole entry): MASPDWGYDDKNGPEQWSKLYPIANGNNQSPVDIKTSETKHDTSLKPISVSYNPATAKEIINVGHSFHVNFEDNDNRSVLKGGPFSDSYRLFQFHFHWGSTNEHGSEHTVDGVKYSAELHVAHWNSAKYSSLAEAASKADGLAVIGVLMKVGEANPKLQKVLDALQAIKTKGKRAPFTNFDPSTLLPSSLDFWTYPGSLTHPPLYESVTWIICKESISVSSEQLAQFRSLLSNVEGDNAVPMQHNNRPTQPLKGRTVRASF
Description: Compound was evaluated for inhibition against human carbonic anhydrase I
In assay [4] the target is Carbonic anhydrase 9 (Homo sapiens, UniProt Q16790).
Description: Compound was evaluated for inhibition against human carbonic anhydrase IX

pKi: −log10 of the molar value.

Usually pKi stands for the negative decadic logarithm of the Ki, by convention in mol/L. For `NS(=O)(=O)c1ccc(S(=O)(=O)Nc2cccc3[nH]cc(Cl)c23)cc1`, the pKi in assay [1] is 7.19; in assay [2], 7.82; in assay [3], 7.51; in assay [4], 7.62.
